Paper PMC8901119 (Chemical Science, 2021)
Where “and” joins values, the source holds several entries; their conditions need not be identical. Equal entries are not always repeated.

Tests used:
[1] = target: T1, Cathepsin L (Homo sapiens, UniProt P07711); assay: Cathepsin L inhibition assay in MDA-MB-231 cells (Magic Red); type: cell-based; details: for Cathepsin Activity (%), single technical replicates: normalized to 0.5% DMSO + Magic Red control, biological replicates 1 and 2
T1 construct: host or cells: MDA-MB-231 cells
Procedure: Phan et al. Electronic SupplementaryInformation
Cell Culture & Cathepsin L Inhibition Assays in MDA -MB-231 Cells
MDA-MB-231 cells (ATCC, #HBT-26) were seeded at 1 x 10^5/well in a black, 24-well, TC-treated plate (Corning). Cells were cultured in 400 µL media per well containing DMEM (Corning), 10% Fetal Bovine Serum (FBS; Atlanta Biologicals), and 1% Penicillin/Streptomycin (Gibco) at 37 °C in 5% CO2. After 48 hours, the cells in each well were treated with 400 µL fresh media containing either 0.5 % DMSO (sterile filtered; Sigma Aldrich), 20 µM SID 26681509 (a known Cts L inhibitor; Tocris), 10 µM E-64 (a known cell-permeable pan cathepsin inhibitor; Tocris), or 50 µM
RS1A. Cathepsin L activity in MDA-MB-231 cells were then evaluated using ICT’s Magic Red TM cathepsin-L substrate, MR-(FR) 2, according to the manufacturer’s protocol (Immunochemistry Technologies, LLC). After incubating the cells for 24 hours in the experimental conditions, 16 µL sterile Milli-Q H 2O (for the unstained cell controls) or 16 µL 26X Magic Red staining solution was added to each well, and the 24-well plate was covered with foil for 60 minutes in a 37°C incubator with 5% CO2. The media was removed from the cell monolayer surface and the cells were rinsed Dulbecco’s phosphate-buffered saline containing Mg 2+ and Ca2+ (DPBS; Corning) (2 x 500 µL DPBS/well with 1 min/rinse). The cells were then immediately visualized at 20X magnification with an Olympus CKX53 microscope with a Reflected Light Fluorescence Illuminator equipped with a green 530-550 nm exciter filler, 570 nm dichroic mirror , and a long pass 575 nm emission/barrier filter. Images were taken by Olympus EP50 camera via the Olympic EP app on an iPhone XR. Positive cells stained with Magic Red would appear red with more brightly stained vacuoles and lysosomes. […]
Cell fluorescence from raw images was analyzed using ImageJ -Fiji. The color images were first split into RGB channels; all Red-channel images were then quantified for integrated fluorescence density across the entire images at the same threshold. […]

[2] = test system: SARS-CoV-2 pseudovirus; set-up: method as in PMID 32221306; details: HEK 293/hACE2 cells; cited from earlier work
[3] = test system: Cts L; set-up: method as in earlier work; details: 10 µM, 24-hour treatment; ref 20 (ESI); cited from earlier work

T1 sequence (P07711 114-333): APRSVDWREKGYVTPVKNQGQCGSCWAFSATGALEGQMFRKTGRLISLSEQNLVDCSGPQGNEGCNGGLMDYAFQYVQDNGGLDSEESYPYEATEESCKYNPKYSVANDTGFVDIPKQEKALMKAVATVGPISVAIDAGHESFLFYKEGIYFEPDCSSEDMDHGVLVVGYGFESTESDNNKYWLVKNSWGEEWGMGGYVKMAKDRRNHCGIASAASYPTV

| Compound | Cathepsin Activity (%), single technical replicates ([1]; 20 uM, listed as SID, 20 µM) | Decrease of SARS-CoV-2 pseudovirus entry [2] | Reduction of Cts L activity in MDA-MB-231 cells [3] | Reduction of Cts L activity in MDA-MB-231 cells ([1]; 10 µM, 24 hours) [%] | Cathepsin Activity (%), single technical replicates ([1]; 10 uM, 10 µM) |
| --- | --- | --- | --- | --- | --- |
| CCc1ccccc1NC(=O)CSC(=O)NNC(=O)[C@H](Cc1c[nH]c2ccccc12)NC(=O)OC(C)(C)C [SID 26681509] | 93.8537% and 84.7857% and 75.9763% and 71.3834% and 62.7105% and 65.0709% | more than 76% |  |  |  |
| CC(C)C[C@H](NC(=O)[C@H]1O[C@@H]1C(=O)O)C(=O)NCCCCN=C(N)N [E-64] |  |  | 30-40% | 32 | 74.2204% and 67.3402% and 72.3857% and 56.9211% and 49.1973% and 90.0663% |
